In PMC9014295 (Frontiers in Pharmacology, 2022):
Entries after “also recorded” stand apart in the source; their conditions may differ.

Assays:
[1] = system: zebrafish liver, transgenic Tg (fabp10: dsRed) zebrafish larvae; experiment: Visual assessment of liver toxicity in zebrafish; format: in vivo, Danio rerio; conditions: exposure 3 dpf for 72 h, imaged at 6 dpf
Experimental: Wild-type AB strain zebrafish (Danio rerio) and transgenic Tg (fabp10: dsRed) zebrafish in this study were reared in a standard laboratory environment with a 14-h light/10-h dark cycle at 28 ± 1°C ([Chen et al., 2019]). As previously described ([Zhang et al., 2020]), 3 days post-fertilization (3 dpf), zebrafish larvae were exposed to compound solutions at different concentrations for 72 h. For visual assessment of liver toxicity in zebrafish, the tested zebrafish larvae were imaged by using a fluorescence microscope to observe the liver phenotype of zebrafish larvae, 20 larvae per group.

[2] = cited from earlier work; for Hepatotoxicity compared with erythromycin: ref Björnsson, 2017
human L02 cells [3] = experiment: Cell viability of L02 cells by CCK-8 assay; format: cell-based; conditions: 24 h, different concentrations
Experimental: As previously described by [Zhang et al. (2020]), the human L02 cells were incubated with each macrolide compounds at different concentrations for 24 h. For cell viability, Cell Counting Kit-8 (CCK-8; Dojindo, CK04) was used by following the manufacturer’s protocol and the absorbance of each well was measured at 450 nm using a microplate reader. For cell toxicity, the level of lactate dehydrogenase (LDH) release was determined by LDH activity assay kits (Dojindo, CK12) according to the manufacturer’s specification, and the absorbance at 490 nm in each well was measured by a microplate reader.

[4] = system: c-fos gene expression in L02 cells; experiment: qRT-PCR of c-fos gene expression in L02 cells; format: cell-based, human; conditions: β-actin reference
Experimental: (§1) As previously described by [Zhang et al. (2020]), the treated zebrafish larvae liver and human L02 cells were collected for the qRT-PCR analysis. Total RNA were extracted from L02 cells and the dissected liver of larvae by using TRIzol reagent (Sigma–Aldrich, Saint Louis, MO, United States) and synthesized cDNA using M-MLV reverse transcriptase (Promega, M1708). The reaction of qRT-PCR was performed by LightCycler480. The relative mRNA levels were calculated with β-actin as the reference gene using the comparative […] quantization method. The specific primers (5′-3′) for amplification in zebrafish are as follows: fosab (F: TTACCAGCCTTAACGCCGAC, R: TGGACCATCCACTGCAAGTC), β-actin (F: CCGTGACATCAAGGAGAAG, R: ATACCGCAAGATTCCATACC). The primer sequences (5′-3′) for qRT-PCR in L02 cells are as follows: c-fos (F: TACTACCACTCACCCGCAGA, R: GGCCTCCTGTCATGGTCTTC), β-actin (F: CACCATTGGCAATGAGCGGTTC, R: AGGTCTTTGCGGATGTCCACGT).

zebrafish fosab gene = experiment: RNA-seq analysis of zebrafish larvae liver (fosab); format: in vivo, Danio rerio; conditions: 2 mM; for Fold change of fosab gene (RNA-seq): exposed 3 dpf, collected 6 dpf
Experimental: As previously described ([Han et al., 2018a]), the process of ribonucleic acid sequencing (RNA-seq) analysis was carried out by CapitalBio Corporation (Beijing, China). […] Cytoscape software was employed to map the drug–pathway network.

[5] = system: fosab gene expression in zebrafish liver; experiment: qRT-PCR of fosab gene expression in zebrafish liver; format: in vivo, Danio rerio; conditions: β-actin reference
Experimental: as §1

human L02 cells [6] = experiment: LDH release assay in L02 cells; format: cell-based; conditions: 24 h, different concentrations
Experimental: As previously described by [Zhang et al. (2020]), the human L02 cells were incubated with each macrolide compounds at different concentrations for 24 h. […] For cell toxicity, the level of lactate dehydrogenase (LDH) release was determined by LDH activity assay kits (Dojindo, CK12) according to the manufacturer’s specification, and the absorbance at 490 nm in each well was measured by a microplate reader.

Row | Structure (SMILES) | Liver phenotype of zebrafish larvae ([1]; 0.5 mm) | c-fos mRNA level (qRT-PCR) [4] | Effect on fosab mRNA level (RNA-seq, GO enrichment analysis) (zebrafish fosab gene) | Fold change of fosab gene (RNA-seq) (zebrafish fosab gene) | further results
1 | CC[C@H]1OC(=O)[C@H](C)[C@@H](O[C@H]2C[C@@](C)(OC)[C@@H](O)[C@H](C)O2)[C@H](C)[C@@H](O[C@@H]2O[C@H](C)C[C@H](N(C)C)[C@H]2O)[C@](C)(O)C[C@@H](C)CN(C)[C@H](C)[C@@H](O)[C@]1(C)O [Azithromycin] | hepatomegaly | – | – | – | Liver phenotype of zebrafish larvae ([1]; 0.1 mM): no toxicity to zebrafish liver; Liver phenotype of zebrafish larvae ([1]; 1 mm): blackened liver tissue; Hepatotoxicity compared with erythromycin [2]: higher hepatotoxicity than erythromycin
2 | CC[C@H]1OC(=O)[C@H](C)[C@@H](O[C@H]2C[C@@](C)(OC)[C@@H](O)[C@H](C)O2)[C@H](C)[C@@H](O[C@@H]2O[C@H](C)C[C@H](N(C)C)[C@H]2O)[C@](C)(OC)C[C@@H](C)C(=O)[C@H](C)[C@@H](O)[C@]1(C)O [Clarithromycin] | – | – | – | – | Hepatotoxicity compared with erythromycin [2]: less hepatotoxicity than erythromycin
3 | CCC1OC(=O)C(C)C(OC2CC(C)(OC)C(O)C(C)O2)C(C)C(OC2OC(C)CC(N(C)C=O)C2O)C(C)(O)CC(C)CN(C)C(C)C(O)C1(C)O (stereo not drawn) [Impurity F] | nearly non-toxic to zebrafish liver | did not affect | no significant effect | – | Cytotoxicity / cell viability (CCK-8) (human L02 cells [3]): less cytotoxicity; Liver phenotype of zebrafish larvae ([1]; 1 mm): nearly non-toxic to zebrafish liver
4 | CCC1OC(=O)C(C)C(OC2CC(C)(OC)C(O)C(C)O2)C(C)C(OC2OC(C)CC(NC)C2O)C(C)(O)CC(C)CN(C)C(C)C(O)C1(C)O (stereo not drawn) [Impurity I] | – | significantly upregulated | upregulated significantly | 2.14 | –
5 | CCC1OC(=O)C(C)C(O)C(C)C(OC2OC(C)CC(N(C)C)C2O)C(C)(O)CC(C)CN(C)C(C)C(O)C1(C)O (stereo not drawn) [Impurity J] | – | significantly upregulated | upregulated significantly | 2.92 | –
6 | CCC1OC(=O)C(C)C(OC2CC(C)(OC)C(O)C(C)O2)C(C)C(OC2OC(C)CC([N+](C)(C)[O-])C2O)C(C)(O)CC(C)CN(C)C(C)C(O)C1(C)O (stereo not drawn) [Impurity L] | liver tissue became black | significantly upregulated; also recorded: greatest effect | upregulated significantly | 4.10 | Liver phenotype of zebrafish larvae ([1]; 0.1 mM): hepatomegaly and caused the liver lost transparency with a brown coloration; fosab mRNA level (qRT-PCR) [5]: greatest effect
7 | CCC1OC(=O)C(C)C(OC2CC(C)(OC)C(O)C(C)O2)C(C)C(OC2OC(C)CC(N(C)C)C2O)C2(C)CC(C)C(=NC(C)C(O)C1(C)O)O2 (stereo not drawn) [Impurity Q] | – | significantly upregulated | upregulated significantly | 3.07 | –
8 | CCC1OC(=O)C(C)C(OC2CC(C)(OC)C(O)C(C)O2)C(C)C(OC2OC(C)CC(N(C)C)C2O)C(C)(O)CC(C)C2=NC(C)C(O2)C1(C)O (stereo not drawn) [Impurity R] | – | significantly upregulated; also recorded: moderately lower than azithromycin | upregulated significantly | 2.18 | –
9 | CCC1OC(=O)C(C)C(OC2CC(C)(OC)C(O)C(C)O2)C(C)C(OC2OC(C)CC(N(C)C)C2O)C(C)(O)CC(C)C(=NO)C(C)C(O)C1(C)O (stereo not drawn) [Impurity S] | – | did not affect | no significant effect | – | Cytotoxicity / cell viability (CCK-8) (human L02 cells [3]): less cytotoxicity
10 | CC[C@H]1OC(=O)[C@H](C)[C@@H](O[C@H]2C[C@@](C)(OC)[C@@H](O)[C@H](C)O2)[C@H](C)[C@@H](O[C@@H]2O[C@H](C)C[C@H](N(C)C)[C@H]2O)[C@](C)(O)C[C@@H](C)/C(=N\OCOCCOC)[C@H](C)[C@@H](O)[C@]1(C)O [Roxithromycin] | – | – | – | – | Hepatotoxicity compared with erythromycin [2]: less hepatotoxicity than erythromycin
11 | CC[C@H]1OC(=O)[C@H](C)C(=O)[C@H](C)[C@@H](O[C@@H]2O[C@H](C)C[C@H](N(C)C)[C@H]2O)[C@](C)(OC)C[C@@H](C)C(=O)[C@H](C)[C@H]2N(CCCCn3cnc(-c4cccnc4)c3)C(=O)O[C@]12C [Telithromycin] | a dark coloration and amorphous liver | significantly elevated | – | – | Cytotoxicity / cell viability (CCK-8) (human L02 cells [3]): higher cytotoxicity than azithromycin; Liver phenotype of zebrafish larvae ([1]; 0.1 mM): hepatomegaly; fosab mRNA level (qRT-PCR) [5]: significantly elevated; Liver injury in clinical use ([2]; ref Author Anonymous, 2012): pulled from the market due to severe acute liver injury; Cytotoxicity (LDH release) (human L02 cells [6]): higher cytotoxicity than azithromycin
